Measured values as given in publication PMC5789271, “Absorption and Metabolism of Phenolics from Digests of Polyphenol-Rich Potato Extracts Using the Caco-2/HepG2 Co-Culture System” (Foods, 2018).
“And” between values parts separate entries of the source, which are not always exact repeats. Identical values can stand only once. “Also recorded” adds a separate entry of the source.

What was measured:
[1] = tested on: human intestinal microbial ecosystem (colonic microbiota); experiment: Simulated digestion of PRPE in the dynamic multi-reactor GI model, LC-MS phenolic profile of pooled colonic digesta; format: in vitro ADME; settings: pooled digesta of three colonic vessels, 24 h; further: key: (+) present; (T) trace amount
From the text: PRPE was subjected to in vitro digestion by the GI model as described previously in detail. Briefly, the model was composed of five double-jacketed vessels representing the stomach, the small intestine, the ascending colon, the transverse colon, and the descending colon. The model was fully computer controlled. The pH was automatically controlled by addition of 0.2 M HCl and 0.5 M NaOH solution upon a change in pH in the vessels to simulate the in vivo conditions in the different segments of the human gastrointestinal tract. The temperature was kept at 37 °C and anaerobic conditions were maintained in the fermentation vessels by flushing nitrogen gas for 20 min into the airspace every day. The experiment was started after a 2-week stabilization period in which fecal slurry, obtained from five healthy volunteers with no history of GI disease or antibiotic use in the previous six months, were inoculated into the last three vessels. After the 2-week stabilization period, 130 g PRPE was dissolved in the GI food mixture, which was composed of the following ingredients: arabinolactan, pectin, xylan, starch, glucose, yeast extracts, peptone, mucin, and cysteine powders—a composition previously developed by Molly et al. (1993). The GI food mixture was stored at 4 °C during the study. Samples were collected from all three colonic vessels before and 24 h after addition of PRPE to the GI digestion model. Each digestion was carried out in triplicate. Samples were centrifuged at 1000× g and stored at −80 °C for later analysis by liquid chromatography–mass spectrometry (LC-MS) and for the cell culture experiments.
The samples that were collected from the last three colonic vessels of the gut model after 24 h digestion were pooled after each experiment and prepared according to the method described previously. The samples were centrifuged at 36,000× g, 4 °C for 2 h. The supernatant was collected and the pH was neutralized to pH 7 before being filter sterilized with a 25 mm syringe filter (0.2 µm, MCE, Fisher Scientific, Ottawa, ON, Canada) and stored at −80 °C until used for the Caco-2/HepG2 cell experiments. Samples collected before the addition of PRPE were considered as the controls.
This condition was maintained for 3 min.

[2] = tested on: Caco-2 cells; experiment: Caco-2 cell transport bioassay (Caco-2/HepG2 co-culture, 2 h); format: in vitro ADME, human; design: Percentage of Control Value at 0 h, A (2 h) / Percentage of Control Value at 0 h, B (2 h): concentration or dose not given beside the values; settings: for Percentage of Digesta Value, A (2 h) / Percentage of Digesta Value, B (2 h): PRPE digesta 10% (v/v); for Percentage of Digesta Value, A (2 h) / Percentage of Control Value at 0 h, A (2 h): apical chamber after 2 h; for Percentage of Digesta Value, B (2 h) / Percentage of Control Value at 0 h, B (2 h): basolateral chamber after 2 h; for Percentage of Control Value at 0 h, A (2 h) / Percentage of Control Value at 0 h, B (2 h): control digesta
[3] = tested on: HepG2 cells; experiment: HepG2 cell metabolism bioassay (basolateral chamber, further 3 h); settings: for Fold increase of basolateral concentration after HepG2 incubation: 3 h with HepG2 cells, relative to initial basolateral value
Method: Cells were incubated at 37 °C with 5% CO2 and 90% humidity and were monitored daily.
During this time, the medium was changed every other day. Before starting the treatments, the integrity of the monolayer was checked by measuring the transepithelial electrical resistance (TEER). […] Caco-2 monolayers having reached a TEER of 250 ohm/cm^2 or greater were used for the transport experiment [29]. […] Medium (500 µL) containing digesta of PRPE was added to the apical side of the wells and incubated for up to 2 h. […] Samples were taken from the receiver well after 2 and 5 h. […] All samples were centrifuged at 2000× g for 15 min and the supernatants were stored at −20 °C for further analysis by LC-MS.
After thawing, samples were vortexed and filtered using 25 mm syringe filters (0.45 µm, MCE, Fisher Scientific, Ottawa, ON, Canada) and transferred to HPLC vials for LC-MS analysis. […] Phenolic compounds and metabolites were eluted using a gradient of solvent A (10 mM formic acid, pH 3.5) and B (5 mM ammonium formate solution in 100% methanol), starting with 5% B, increasing to 30% B in 5 min, 70% B in 7 min, and 100% B at 9 min. This condition was maintained for 3 min. A solvent flow rate of 1.0 mL/min was used and 20 µL of sample was injected into the LC system. […] The analyses were performed in both positive and negative modes and the data was acquired over a mass range of m/z 100–1000. […] The data were acquired and processed using Agilent Mass Hunter software version B.04.00. […] The relative abundance of the compounds was calculated relative to the quantification of benzoic acid as the reference peak, as benzoic acid was present in all the cellular compartments at the same concentration at all time points.

[4] = tested on: Caco-2 and HT29-MTX cells; design: method as in PMID 18154874; settings: 1-h co-culture of Caco-2 and HT29-MTX cells; cited from earlier work
[5] = tested on: Caco-2 cell monolayer; design: method as in PMID 12784628; settings: cited from earlier work
[6] = PRPE digesta, basolateral chamber after 3 h with HepG2 cells alone (t = 5 h), relative to basolateral value at 2 h
[7] = listed as 3-hydroxyphenylacetic acid
[8] = control digesta, basolateral chamber after 3 h with HepG2 cells (t = 5 h)

SMILES	Presence after human simulated intestinal digestion of PRPE [1]	Percentage of Digesta Value, A (2 h) [2]	Percentage of Digesta Value, B (2 h) [2]	Percentage of Basolateral Value, B (5 h) [3, 6]	Percentage of Control Value at 0 h, A (2 h) [2]	Percentage of Control Value at 0 h, B (2 h) [2]	Percentage of Basolateral Value, B (5 h) [3, 8]	Fold increase of basolateral concentration after HepG2 incubation ([3]; PRPE digesta)	other results
O=C(O)c1cccc(O)c1 [3-Hydroxybenzoic acid]	+	50%	5%	100%					Percentage of Digesta Value, B (2 h) ([2]; listed as 3-hydroxybenzoic acid): 3–5%; Percentage of Basolateral Value, B (5 h) ([3]; PRPE digesta, basolateral chamber after 3 h with HepG2 cells alone (t = 5 h), relative to basolateral value at 2 h, listed as 3-hydroxybenzoic acid): unchanged
O=C(O)Cc1cccc(O)c1 [3-Hydroxyphenylacetic acid]	+	70%	-	-	100%	-	-		Percentage of Digesta Value, A (2 h) [2, 7]: 65–70%; Percentage of Digesta Value, B (2 h) [2, 7]: not detected; also recorded: none of these three compounds were measurable
O=C(O)CCc1cccc(O)c1 [3-Hydroxyphenylpropionic acid, 3-(3-Hydroxyphenyl)propionic acid]	+	69%	4%	233%	90%	-	-	2.3 fold	Percentage of Digesta Value, B (2 h) ([2]; listed as 3-hydroxyphenylpropionic acid): 3–5%; Percentage of Basolateral Value, B (5 h) ([3]; PRPE digesta, basolateral chamber after 3 h with HepG2 cells alone (t = 5 h), relative to basolateral value at 2 h, listed as 3-hydroxyphenylpropionic acid): 160–370%
O=C(O)c1ccccc1 [Benzoic acid]	+	+	+	+	+	+	+		
O=C(O)C=Cc1ccccc1 [Cinnamic acid, 3-Phenylprop-2-enoic acid]	+								
O=C(O)/C=C/c1ccc(O)cc1 [Coumaric acid]	+	68%	3%	212%				More than a two-fold increase	Percentage of Digesta Value, B (2 h) ([2]; listed as coumaric acid): 3–5%
O=C(O)CCc1ccc(O)c(O)c1 [Dihydrocaffeic acid, 3-(3′,4′-Dihydroxyphenyl)propionic acid]	+	67%	15%	338%	26%	26%	123%	three-fold increase	Percentage of Digesta Value, B (2 h) ([2]; listed as dihydrocaffeic acid): 10–15% and 10%; Permeability across Caco-2 cells [4]: 0.5%; Percentage of Basolateral Value, B (5 h) ([3]; PRPE digesta, basolateral chamber after 3 h with HepG2 cells alone (t = 5 h), relative to basolateral value at 2 h, listed as dihydrocaffeic acid): 160–370%
COc1cc(CCC(=O)O)ccc1O [Dihydroferulic acid, 3-(4-Hydroxy-3-methoxyphenyl)propionic acid]	+	78%	10%	78%					Percentage of Digesta Value, B (2 h) ([2]; listed as dihydroferulic acid): 10–15% and 15%
COc1cc(/C=C/C(=O)O)ccc1O [Ferulic acid, (E)-3-(4-Hydroxy-3-methoxy-phenyl)prop-2-enoic acid]	+	90%	11%	166%				1.6 fold	Percentage of Digesta Value, B (2 h) ([2]; listed as ferulic acid): 10–15%; Percentage transported to the basolateral side of the Caco-2 cell monolayer [5]: 3.42%; Percentage of Basolateral Value, B (5 h) ([3]; PRPE digesta, basolateral chamber after 3 h with HepG2 cells alone (t = 5 h), relative to basolateral value at 2 h, listed as ferulic acid): 160–370%
O=C(O)CCc1ccccc1 [Phenylpropanoic acid]	+	65%	-	-	100%	-	-		Percentage of Digesta Value, A (2 h) ([2]; listed as phenylpropanoic acid): 65–70%; Percentage of Digesta Value, B (2 h) ([2]; listed as phenylpropanoic acid): not detected; also recorded: none of these three compounds were measurable
O=C(O)c1ccc(O)c(O)c1 [Protocatechuic acid, 3,4-Dihydroxybenzoic acid]	+								
C[C@@H]1O[C@@H](OC[C@H]2O[C@@H](Oc3c(-c4ccc(O)c(O)c4)oc4cc(O)cc(O)c4c3=O)[C@H](O)[C@@H](O)[C@@H]2O)[C@H](O)[C@H](O)[C@H]1O [Rutin, Quercetin-3-O-rutinoside]	+								
COc1cc(C(=O)O)ccc1O [Vanillic acid, 4-Hydroxy-3-methoxybenzoic acid]	+								
